Data: ChEMBL document CHEMBL1135787, “Synthesis of new molecular probes for investigation of steroid biosynthesis induced by selective interaction with peripheral type benzodiazepine receptors (PBR)” (J Med Chem, 2002)
pKi: −log10 of the molar value.

Legend:
Translocator protein [1] = target: T1, Translocator protein (Rattus norvegicus, UniProt P16257); test: Inhibition of [3H]Ro-5-4864 binding to mitochondrial rat testis Peripheral type benzodiazepine receptor (PBR)
[2] = Stimulatory effect on progesterone biosynthesis in MA10 leydig cells; format: functional, Mus musculus
Translocator protein [3] = target: T1, Translocator protein; test: Inhibition of [3H]PK11195 binding to mitochondrial rat testis Peripheral type benzodiazepine receptor (PBR)
Translocator protein [4] = target: T1, Translocator protein; test: Inhibition of [3H]PK11195 binding to Peripheral type benzodiazepine receptor (PBR) in rat cortex homogenate by 50%

T1 sequence (P16257 whole entry, looked up): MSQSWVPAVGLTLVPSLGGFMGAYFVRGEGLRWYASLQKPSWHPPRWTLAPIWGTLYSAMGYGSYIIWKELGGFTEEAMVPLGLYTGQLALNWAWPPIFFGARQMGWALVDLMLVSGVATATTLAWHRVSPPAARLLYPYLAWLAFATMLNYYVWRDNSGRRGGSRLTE

Structure (SMILES): O=C(OC1=C(c2ccccc2)Oc2ccccc2-n2cccc21)N1CCC1
- pKi (Translocator protein [1]): 8.37
- Progesterone production [2]: 3.5 ng 2hr-1 (10e5*cells)-1
- pKi (Translocator protein [3]): 8.22
- pKi (Translocator protein [4]): 8.22

Structure (SMILES): CCCCN(C)C(=O)OC1=C(c2ccccc2)Oc2ccccc2-n2cccc21
- pKi (Translocator protein [4]): 9.04

Structure (SMILES): CCN(CC)C(=O)OC1=C(c2ccccc2)Oc2cccnc2-n2cccc21
- pKi (Translocator protein [1]): 7.66
- Progesterone production [2]: 3.5 ng 2hr-1 (10e5*cells)-1
- pKi (Translocator protein [3]): 7.96
- pKi (Translocator protein [4]): 8.75

Structure (SMILES): CCN(CC)C(=O)OC1=C(c2ccccc2)Cc2ccccc2-n2cccc21
- pKi (Translocator protein [4]): 8.24

Structure (SMILES): O=C1CN=C(c2ccccc2Cl)c2cc([N+](=O)[O-])ccc2N1 [CLONAZEPAM]
- Progesterone production [2]: 2.3 ng 2hr-1 (10e5*cells)-1

Structure (SMILES): CCNC(=O)OC1=C(c2ccccc2)Oc2c(Cl)cccc2-n2cccc21
- pKi (Translocator protein [4]): 9.74

Structure (SMILES): CCN(CC)C(=O)OC1=C(c2cccs2)Oc2ccccc2-n2cccc21
- pKi (Translocator protein [4]): 7.94

Structure (SMILES): CCCN(C)C(=O)OC1=C(c2ccccc2)Oc2ccccc2-n2cccc21
- pKi (Translocator protein [4]): 9.16

Structure (SMILES): CCCNC(=O)OC1=C(c2ccccc2)Oc2ccccc2-n2cccc21
- pKi (Translocator protein [4]): 9.04

Structure (SMILES): CCN(CC)C(=O)OC1=C(c2cc(F)cc(F)c2)Oc2ccccc2-n2cccc21
- pKi (Translocator protein [4]): 8.90

Structure (SMILES): CN1CCN(C(=O)OC2=C(c3ccccc3)Oc3ccccc3-n3cccc32)CC1
- pKi (Translocator protein [1]): 7.82
- Progesterone production [2]: 3.8 ng 2hr-1 (10e5*cells)-1
- pKi (Translocator protein [3]): 7.54
- pKi (Translocator protein [4]): 8.14

Structure (SMILES): O=C(NC1CC1)OC1=C(c2ccccc2)Oc2ccccc2-n2cccc21
- pKi (Translocator protein [1]): 9.33
- Progesterone production [2]: 3.5 ng 2hr-1 (10e5*cells)-1
- pKi (Translocator protein [3]): 9.51
- pKi (Translocator protein [4]): 8.66

Structure (SMILES): CCN(CC)C(=O)OC1=C(c2cccs2)Oc2cccnc2-n2cccc21
- pKi (Translocator protein [4]): 9.64

Structure (SMILES): CCN(CC)C(=O)OC1=C(c2cccc(C)c2)Oc2ccccc2-n2cccc21
- pKi (Translocator protein [4]): 8.92

Structure (SMILES): CCNC(=O)OC1=C(c2ccccc2)Oc2ccccc2-n2cccc21
- pKi (Translocator protein [1]): 10.00
- Progesterone production [2]: 3.3 ng 2hr-1 (10e5*cells)-1
- pKi (Translocator protein [3]): 9.70
- pKi (Translocator protein [4]): 9.96

Structure (SMILES): CCN(CC)C(=O)OC1=C(c2cccc(C)c2)Oc2cccnc2-n2cccc21
- pKi (Translocator protein [4]): 9.25

Structure (SMILES): CC(=O)OC1=C(c2cccc(C)c2)Oc2ccccc2-n2cccc21
- pKi (Translocator protein [4]): 8.60

Structure (SMILES): Cc1ccc(C2=C(OC(=O)N(C)C)c3cccn3-c3ncccc3O2)cc1
- pKi (Translocator protein [4]): 9.36

Structure (SMILES): CCC(C)N(C)C(=O)c1cc2ccccc2c(-c2ccccc2Cl)n1 (configuration not stated) [PK-11195]
- Progesterone production [2]: 3.4 ng 2hr-1 (10e5*cells)-1

Structure (SMILES): CC(=O)OC1=C(c2ccc(C)cc2)Oc2cccnc2-n2cccc21
- pKi (Translocator protein [4]): 7.87

Structure (SMILES): CCNC(=O)OC1=C(c2ccc(C)cc2)Oc2ccccc2-n2cccc21
- pKi (Translocator protein [4]): 9.17

Structure (SMILES): CCN(C)C(=O)OC1=C(c2ccccc2)Oc2ccccc2-n2cccc21
- pKi (Translocator protein [4]): 9.11
